IC50 data for 20 molecules are collected here from patent EP4818178A1, “PREPARATION AND USE OF PYRIMIDOTHIOPYRANONE KRAS MUTANT PROTEIN INHIBITOR” (Ya Therapeutics Inc, priority 2024, dated 2025).

Sequence of KRasG12D (P01116 1-188 isoform P01116-2 G12D): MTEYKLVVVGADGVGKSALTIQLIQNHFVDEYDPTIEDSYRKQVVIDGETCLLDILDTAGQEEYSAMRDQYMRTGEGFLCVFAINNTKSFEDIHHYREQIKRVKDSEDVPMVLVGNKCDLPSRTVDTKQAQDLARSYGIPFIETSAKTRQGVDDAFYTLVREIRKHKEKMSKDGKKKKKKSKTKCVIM

The target of this assay is KRasG12D (Homo sapiens, UniProt P01116, G12D). Put plainly: KRAS inhibitory activity test, TR-FRET (inhibition of binding of KRasG12D to GTP, SOS/GTP nucleotide exchange). As to conditions: read-out: IC50 values of the compounds for inhibiting KRAS enzymes, G12D. It is filed as biochemical. The procedure: • 1. […] Reagent Preparation: • a. Storage Reagents:
Prepare a 1L solution by mixing 20mL of 1000mM HEPES, 20mL of 500mM EDTA, 10mL of 5M sodium chloride, 0.1mL of 100% Tween 20, and 949.9mL of water. Sterilize by filtration and store at 4°C.
Prepare a 1L solution by mixing 20mL of 1000mM HEPES, 10mL of 1000mM magnesium chloride, 30mL of 5M sodium chloride, 0.05mL of 100% Tween 20, and 939.95mL of water. Sterilize by filtration and store at 4°C. 3) KRAS/Bodipy GDP/Tb-SA Mixture: Mix 9.5 µL of 95 µM KRasG12D protein with 440.5 µL of KRAS nucleotide exchange buffer. Incubate at room temperature for 1 hour. Then, mix with 8.4 µL of 17.9 µM Tb-SA, 1.8 µL of 5 mM Bodipy GDP, and 9539.8 µL of KRAS experimental buffer to prepare […]. After mixing, incubate at room temperature for 6 hours and store at -80°C.
• 1) KRAS Enzyme Solution: Mix 73.3 µL of KRAS/Bodipy GDP/Tb-SA mixture with 2126.7 µL of KRAS experimental buffer to prepare a 2200 µL solution. • 2) SOS/GTP Mixture
c. Experimental Procedure: Mix 1.59 µL of 166 µM SOS protein with 198 µL of 100 mM... GTP and 0.41 µL KRAS buffer were prepared to a 2200 µL solution. The stock solution concentration of the control compound was 1 mM, and the stock solution concentration of the test compound was 10 mM. 9 µL of the control compound and the test compound were transferred to a 384-LDV plate. The compound on the LDV plate was 3-fold diluted 10-point using Bravo. 9 nL of the compound on the LDV plate was transferred to the experimental plate using ECHO. 3 µL of a 3 nM Kras/0.5 nM TB-SA/30 nM BodipyGDP mixture and 3 µL of Ras buffer were added to each well of the experimental plate using a Dragonfly autopilot. The plate was centrifuged at 1000 rpm for 1 minute. The plate was incubated at room temperature for 1 hour. 3 µL of 120 nM SOS/9 mM KRAS buffer was added to each well of the experimental plate using a Dragonfly autopilot. The […] was centrifuged at 1000 rpm for 1 minute; the plate was incubated at room temperature for 1 hour; the plate was read and the data were recorded using Envision; the data were analyzed using Excel and Xlfit to calculate the IC50of the test compound. "++++" indicates IC50≤ 10 nM; "+++" indicates 10 nM < IC50≤ 100 nM; "++" indicates 100 nM < IC50≤ 2000 nM; "+" indicates 2000 nM < IC50.
For orientation: TR-FRET usually uses a lanthanide donor and a delayed reading to cut background.
What is called IC50 is the concentration that gives 50% inhibition. In the case of `C=C1CN2CCC[C@@]2(COc2nc3c(c(N4CC5CCC(C4)N5)n2)CS(=O)(=O)[C@H](c2c(F)c(N)cc(C#CC)c2C(F)(F)F)C3)C1` [Compound 22A, (7S)-7-(3-amino-2-fluoro-5-(prop-1-yn-1-yl)-6-(trifluoromethyl)phenyl)-4-(3,8-diazabicyclo[3.2.1]octane-3-yl)-2-(((S)-2-(methylene)tetrahydro-1H-pyrrolazin-7a(5H)-yl)methoxy)-7,8-dihydro-5H-thiopyrano[4,3-d]pyrimidine-6,6-dioxide], the IC50 is at most 10 nM.
As to `CC#Cc1cc(N)c(F)c(C2Cc3nc(OC[C@@]45CCCN4CC(=C(F)F)C5)nc(N4CC5CCC(C4)N5)c3CS2(=O)=O)c1C(F)(F)F` (stereo partly drawn) [Compound 23, 7-(3-amino-2-fluoro-5-(prop-1-yn-1-yl)-6-(trifluoromethyl)phenyl)-4-(3,8-diazabicyclo[3.2.1]octane-3-yl)-2-(((S)-2-(difluoromethylene)tetrahydro-1H-pyrrolazin-7a(5H)-y 1)methoxy)-7,8-dihydro-5H-thiopyrano[4,3-d]pyrimidine-6,6-dioxide], the IC50 was at most 10 nM.
For `CC#Cc1cc(N)c(F)c([C@@H]2Cc3nc(OC[C@@]45CCCN4CC(=C(F)F)C5)nc(N4CC5CCC(C4)N5)c3CS2(=O)=O)c1C(F)(F)F` [Compound 23A, (7S)-7-(3-amino-2-fluoro-5-(prop-1-yn-1-yl)-6-(trifluoromethyl)phenyl)-4-(3,8-diazabicyclo[3.2.1]octane-3-yl)-2-(((S)-2-(difluoromethylene)tetrahydro-1H-pyrrolazin-7a(5H)-yl)methoxy)-7,8-dihydro-5H-thiopyrano[4,3-d]pyrimidine-6,6-dioxide] the value was at most 10 nM; for `CC#Cc1cc(N)c(F)c(C2Cc3nc(OC[C@@]45CCCN4C/C(=C\F)C5)nc(N4CC5CCC(C4)N5)c3CS2(=O)=O)c1C(F)(F)F` (stereo partly drawn) [Compound 24, 7-(3-amino-2-fluoro-5-(prop-1-yn-1-yl)-6-(trifluoromethyl)phenyl)-4-(3,8-diazabicyclo[3.2.1]octane-3-yl)-2-(((S)-2-(fluoromethylene)tetrahydro-1H-pyrrolazin-7a(5H)-yl)methoxy)-7,8-dihydro-5H-thiopyrano[4,3-d]pyrimidine-6,6-dioxide], at most 10 nM.
To `CC#Cc1cc(N)c(F)c([C@@H]2Cc3nc(OC[C@@]45CCCN4C/C(=C\F)C5)nc(N4CC5CCC(C4)N5)c3CS2(=O)=O)c1C(F)(F)F` [Compound 24A, (7S)-7-(3-amino-2-fluoro-5-(prop-1-yn-1-yl)-6-(trifluoromethyl)phenyl)-4-(3,8-diazabicyclo[3.2.1]octane-3-yl)-2-(((S)-2-(fluoromethylene)tetrahydro-1H-pyrrolazin-7a(5 H)-yl)methoxy)-7,8-dihydro-5H-thiopyrano[4,3-d]pyrimidine-6,6-dioxide] belongs at most 10 nM; to `Cc1cc(N)c(F)c([C@@H]2Cc3nc(OC[C@@]45CCCN4C[C@H](F)C5)nc(N4C[C@H]5CC[C@@H](C4)N5)c3CS2(=O)=O)c1C(F)(F)F` [Compound 29A, (7S)-7-(3-amino-2-fluoro-5-methyl-6-(trifluoromethyl)phenyl)-4-((1R,5S)-3,8-diazabicyclo[3.2.1]octane-3-yl)-2-(((2R,7AS)-2-fluorotetrahydro-1H-pyrrolazin-7a(5H)-yl)methoxy)-7,8-dihydro-5H-thiopyrano[4,3-d]pyrimidine 6,6-Dioxide], at most 10 nM; to `Cc1cc(N)c(F)c([C@@H]2Cc3nc(OC[C@@]45CCCN4C[C@H](F)C5)nc(N4C[C@H]5CC[C@@H](C4)N5)c3CS2(=O)=O)c1C(F)(F)F` [Compound 30A, (7S)-7-(3-amino-2-fluoro-5-methyl-6-(trifluoromethyl)phenyl)-4-((1R,5S)-3,8-diazabicyclo[3.2.1]octane-3-yl)-2-(((2R,7AS)-2-fluorotetrahydro-1H-pyrrolazin-7a(5H)-yl)methoxy)-7,8-dihydro-5H-thiopyrano[4,3-d]pyrimidine 6,6-Dioxide], at most 10 nM.
To `CC#Cc1cc(N)cc([C@@H]2Cc3nc(OC[C@@]45CCCN4CC(=C(F)F)C5)nc(N4CC5CCC(C4)N5)c3CS2(=O)=O)c1C(F)(F)F` [Compound 31A] belongs at most 10 nM; to `CC#Cc1cc(N)cc(C2Cc3nc(OC[C@@]45CCCN4CC(=C(F)F)C5)nc(N4CC5CCC(C4)N5)c3CS2(=O)=O)c1C(F)(F)F` (some centres unmarked) [Compound 31], at most 10 nM.
With `CC#Cc1cc(N)cc(C2Cc3nc(OC[C@@]45CCCN4C/C(=C\F)C5)nc(N4CC5CCC(C4)N5)c3CS2(=O)=O)c1C(F)(F)F` (some centres unmarked) [Compound 32], the IC50 was at most 10 nM.
For the molecule `Cc1cc(N)c(F)c([C@@H]2Cc3nc(OC[C@@]45CCCN4C[C@H](F)C5)nc(N4C[C@H]5CC[C@@H](C4)N5)c3CS2(=O)=O)c1C(F)(F)F` [Compound 33A, (7S)-7-(3-amino-2-fluoro-5-methyl-6-(trifluoromethyl)phenyl)-4-((1R,5S)-3,8-diazabicyclo[3.2.1]octane-3-yl)-2-(((2R,7AS)-2-fluorotetrahydro-1H-pyrrolazin-7a(5H)-yl)methoxy)-7,8-dihydro-5H-thiopyrano[4,3-d]pyrimidine 6,6-Dioxide], the IC50 was at most 10 nM.
To `Cc1cc(N)c(F)c([C@@H]2Cc3nc(OC[C@@]45CCCN4C[C@H](F)C5)nc(N4C[C@H]5CC[C@@H](C4)N5)c3CS2(=O)=O)c1C(F)(F)F` [Compound 34A, (7S)-7-(3-amino-2-fluoro-5-methyl-6-(trifluoromethyl)phenyl)-4-((1R,5S)-3,8-diazabicyclo[3.2.1]octane-3-yl)-2-(((2R,7AS)-2-fluorotetrahydro-1H-pyrrolazin-7a(5H)-yl)methoxy)-7,8-dihydro-5H-thiopyrano[4,3-d]pyrimidine 6,6-Dioxide] belongs at most 10 nM; to `Cc1cc(N)c(F)c([C@@H]2Cc3nc(OC[C@@]45CCCN4C[C@H](F)C5)nc(N4C[C@H]5CC[C@@H](C4)N5)c3CS2(=O)=O)c1C(F)(F)F` [Compound 35A, (7S)-7-(3-amino-2-fluoro-5-methyl-6-(trifluoromethyl)phenyl)-4-((1R,5S)-3,8-diazabicyclo[3.2.1]octane-3-yl)-2-(((2R,7AS)-2-fluorotetrahydro-1H-pyrrolazin-7a(5H)-yl)methoxy)-7,8-dihydro-5H-thiopyrano[4,3-d]pyrimidine 6,6-Dioxide], at most 10 nM.
To `Cc1cc(N)cc(C2Cc3nc(OC[C@@]45CCCN4C/C(=C\F)C5)nc(N4CC5CCC(C4)N5)c3CS2(=O)=O)c1C(F)(F)F` (some centres unmarked) [Compound 35] belongs at most 10 nM.
To `Cc1cc(N)c(F)c([C@@H]2Cc3nc(OC[C@@]45CCCN4C[C@H](F)C5)nc(N4C[C@H]5CC[C@@H](C4)N5)c3CS2(=O)=O)c1C(F)(F)F` [Compound 36A, (7S)-7-(3-amino-2-fluoro-5-methyl-6-(trifluoromethyl)phenyl)-4-((1R,5S)-3,8-diazabicyclo[3.2.1]octane-3-yl)-2-(((2R,7AS)-2-fluorotetrahydro-1H-pyrrolazin-7a(5H)-yl)methoxy)-7,8-dihydro-5H-thiopyrano[4,3-d]pyrimidine 6,6-Dioxide] belongs at most 10 nM; to `Cc1cc(N)cc([C@@H]2Cc3nc(OC[C@@]45CCCN4C[C@H](F)C5)nc(N4CC5CCC(C4)N5)c3CS2(=O)=O)c1C(F)(F)F` [Compound 37A], at most 10 nM; to `Cc1cc(N)c(F)c([C@@H]2Cc3nc(OC[C@@]45CCCN4C[C@H](F)C5)nc(N4C[C@H]5CC[C@@H](C4)N5)c3CS2(=O)=O)c1C(F)(F)F` [Compound 38A, (7S)-7-(3-amino-2-fluoro-5-methyl-6-(trifluoromethyl)phenyl)-4-((1R,5S)-3,8-diazabicyclo[3.2.1]octane-3-yl)-2-(((2R,7AS)-2-fluorotetrahydro-1H-pyrrolazin-7a(5H)-yl)methoxy)-7,8-dihydro-5H-thiopyrano[4,3-d]pyrimidine 6,6-Dioxide], at most 10 nM.
Turning to `C=C1CN2CCC[C@@]2(COc2nc3c(c(N4CC5CCC(C4)N5)n2)CS(=O)(=O)C(c2cc(N)cc(C)c2C(F)(F)F)C3)C1` (some centres unmarked) [Compound 38], the IC50 is at most 10 nM.
To `Cc1cc(N)cc([C@@H]2Cc3nc(OC[C@@]45CCCN4C/C(=C\F)C5)nc(N4CC5CCC(C4)N5)c3CS2(=O)=O)c1C(F)(F)F` [Compound 39A] belongs at most 10 nM; to `Cc1cc(N)cc(C2Cc3nc(OC[C@@]45CCCN4CC(=C(F)F)C5)nc(N4CC5CCC(C4)N5)c3CS2(=O)=O)c1C(F)(F)F` (some centres unmarked) [Compound 40], at most 10 nM.
